What was measured:
TrkB [1] = molecular target: T1, TrkB (Rattus norvegicus, UniProt Q63604); assay: biochemical; type: binding; conditions: for displacement of ^3H-LSD from TrkB: 1 nM to 10 µM of drug; for K (one phase exponential decay, best-fit) / Plateau (one phase exponential decay, best-fit) / Span (one phase exponential decay, best-fit): ext fig 1h
T1 construct: expressed in transfected cells; host or cells: HEK293T

[2] = Supplementary Table 3 legend; source not stated; cited from earlier work
TrkB [3] = molecular target: T1, TrkB; assay: Competition binding with biotinylated R,R-HNK
Procedure: Binding assays were performed as previously described with minor modifications. […] Samples from mouse embryo (E18) brains were also lysed, vortexed, sonicated and centrifuged for binding assays. Plates were then washed with PBS. […] For the competition binding assays with biotinylated R,R-HNK, the amino-biotinylation of R,R-HNK was performed using a commercial kit (Thermo Scientific, EZ-Link NHS-PEG4 Biotinylation Kit, 21455) and the reaction monitored by MS. A mixture of biotinylated R,R-HNK (10 µM) and unlabeled compounds (1 pM to 10 µM) in PBS was added to the 96-well plates containing the immunoprecipitated TrkB and incubated for 1 h at room temperature. […] Luminescence was determined via streptavidin conjugated with horseradish peroxidase (HRP; Thermo Fisher Scientific, 21126; 1:5,000, 1 h at room temperature) in reaction with the Pierce ECL substrate (Thermo Fisher Scientific, 32106). Luminescence from blank wells that contained all reagents but the sample lysates was used to determine nonspecific binding. To obtain the binding curves, results from binding assays were fitted to the equation of specific binding with Hill slope from GraphPad Prism 9.2. To calculate koff values, results were fitted to the equation of dissociation of one phase exponential decay from GraphPad Prism 9.2.

TrkB (WT) dimerization = molecular target: T2, TrkB (WT) dimerization (Rattus norvegicus, UniProt Q63604); assay: Split-luciferase PCA of TrkB dimerization in N2a cells; type: cell-based; conditions: ketanserin 100 nM, M100907 100 nM or TrkB.FC 200 ng ml^−1, 10 min before
T2 construct: expressed in transfected cells; host or cells: N2a
Procedure: Ketanserin, M100907 and TRKB.FC were added to the media 10 min before treatment. The PCA method was performed as previously described[11],[75],[76]. Split humanized Gaussia princeps luciferase (hGLuc) was cloned on the C-terminus of the reporter proteins TrkB (WT and Y433F) and lipid raft Fyn. If the reporter proteins that carry complementary halves of the luciferase interact, the enzyme can refold in its functional conformation and, upon addition of its substrate, produce luminescence proportionally to the amount of reporter proteins interacting at a given time. N2a cells were seeded in 96-well plates with opaque walls and transparent bottom (PerkinElmer, ViewPlate 96). Cells were transfected with Lipofectamine 2000 according to the manufacturer’s instructions 24 h post-plating with the PCA pair plasmids: phGLuc(1C)-TrkB(WT) or the mutant phGLuc(1C)-TrkB(Y433F) and phGLuc(2 C)-TrkB(WT) for the dimerization experiments; phGLuc(1C)-lipid raft Fyn and phGLuc(2C)-TrkB(WT) or phGLuc(2C)-TrkB(Y433F) for the lipid raft localization experiments. Forty-eight hours post transfection, cells were treated (40 min, 37 °C) in phenol red-free Dulbecco’s modified Eagle medium without serum. […] The PCA signal was detected with the substrate for the luciferase, native coelenterazine, which was injected into each well directly in the plate reader at a final concentration of […].

[4] = test system: dendritic arbor complexity of neuronal cultures; set-up: method as in PMID 29898390; conditions: cultured neurons; cited from earlier work
[5] = test system: dendritic arbor complexity of neuronal cultures; assay: Dendritogenesis (Sholl analysis) in neuronal cultures (WT and Y433F^+/−); type: cell-based, mouse; conditions: for e6e group mean (dendritogenesis, Sholl analysis): BDNF; for e6e Mean Diff. (Veh. minus BDNF): uncorrected Fisher's LSD
Procedure: In a separate set of experiments to study the effects of extracellular BDNF and 5-HT2A activation, cultures were also pretreated for 10 min with TrkB.FC (200 ng ml^−1) or M100907 (100 nM), respectively. Similar to treatment with the psychedelics, TrkB.FC and M100907 pretreatments were administered in cumulative doses and remained in the medium for the rest of the experiment. At DIV7, neurons were pre-incubated for 1 h with […] MgCl2 to prevent excitotoxicity, then neurons were transfected for the heterologous expression of mCherry. To minimize any possible interference of the transfection protocol upon the drug effect, transfection was done in the morning while treatment with psychedelics was always added in the evening. Twenty-four hours after transfection, neurons were fixed with 4% PFA for 20 min at room temperature, washed in PBS-T, blocked for 30 min with 3% BSA in PBS-T and incubated with chicken anti-MAP2 (Abcam, ab5392; 1:5,000, 1 h, room temperature). Then, coverslips were washed in PBS-T and incubated with Alexa Fluor 647-conjugated antibody goat anti-chicken (Invitrogen, A-21449; 1:1,000, 1 h, room temperature). Next, coverslips were washed in PBS-T and MilliQ water, and mounted in Dako fluorescence mounting medium (Agilent, S302380-2). Ten optical sections with a Z-step of 1.3 μm were acquired using a Zeiss LSM 710 confocal microscope with a LCI Plan/Neofluar 25×/0.8 lmm Korr DIC M27 objective. In the mCherry channel, the center of the soma was manually assigned and the number of dendritic intersections at fixed distances (every 5 μm) from the soma was automatically counted using the Sholl analysis plugin of ImageJ.

TrkB [6] = assay: Western blot of TrkB protein expression in N2a cells; type: cell-based; conditions: WT and Y433F^+/−
Procedure: In a separate set of experiments to examine the effect of 5-HT2A activation, M100907 (100 nM) was administered as a 10 min pretreatment and remained in the medium for the rest of the experiment. Next, cells were lysed and centrifuged. […] The co-immunoprecipitation was carried out as previously described[11],[23],[24] with minor modifications. Briefly, Magnetic Dynabeads Protein G (Invitrogen, 10004D) were coated with anti-TrkB antibody (R&D Systems, AF1494) at 200 ng of antibody per 1 µl of beads in rotation (2 h, 4 °C). Finally, lysates were mixed with the coated beads (100 µg of total protein per 15 µl of beads) and incubated in rotation (overnight, 4 °C).
Proteins were separated according to their molecular weight by SDS–PAGE and transferred to a polyvinylidene fluoride membrane. Membranes were incubated with the following primary antibodies (all 1:1,000 in 3% BSA in TBS-T, overnight, 4 °C): anti-TrkB (R&D Systems, AF1494), anti-β-actin (Sigma-Aldrich, A1978), anti-phospho-mTOR (Cell Signaling Technology, 5536S), anti-phospho-p44/42 MAPK (Erk1/2) (Cell Signaling Technology, 9106S), anti-mTOR (Cell Signaling Technology, 2972S) and anti-p44/42 MAPK (Erk1/2) (Cell Signaling Technology, 9102S). […] Protein bands were visualized using enhanced chemiluminescent substrate (Thermo Scientific, 32132, ECL Plus) and imaged with a charge-coupled device camera (G:BOX, Syngene).

[7] = molecular target: the molecule itself; assay: NMR titration; 1H,15N-HSQC spectra of TrkB TMD in DMPC/DHPC bicelles at various lipid-to-protein ratios, 40 °C, pH 6.0; monomer to dimer
[8] = ext fig 1f, competition curve, n=5

T1 sequence (Q63604 32-821): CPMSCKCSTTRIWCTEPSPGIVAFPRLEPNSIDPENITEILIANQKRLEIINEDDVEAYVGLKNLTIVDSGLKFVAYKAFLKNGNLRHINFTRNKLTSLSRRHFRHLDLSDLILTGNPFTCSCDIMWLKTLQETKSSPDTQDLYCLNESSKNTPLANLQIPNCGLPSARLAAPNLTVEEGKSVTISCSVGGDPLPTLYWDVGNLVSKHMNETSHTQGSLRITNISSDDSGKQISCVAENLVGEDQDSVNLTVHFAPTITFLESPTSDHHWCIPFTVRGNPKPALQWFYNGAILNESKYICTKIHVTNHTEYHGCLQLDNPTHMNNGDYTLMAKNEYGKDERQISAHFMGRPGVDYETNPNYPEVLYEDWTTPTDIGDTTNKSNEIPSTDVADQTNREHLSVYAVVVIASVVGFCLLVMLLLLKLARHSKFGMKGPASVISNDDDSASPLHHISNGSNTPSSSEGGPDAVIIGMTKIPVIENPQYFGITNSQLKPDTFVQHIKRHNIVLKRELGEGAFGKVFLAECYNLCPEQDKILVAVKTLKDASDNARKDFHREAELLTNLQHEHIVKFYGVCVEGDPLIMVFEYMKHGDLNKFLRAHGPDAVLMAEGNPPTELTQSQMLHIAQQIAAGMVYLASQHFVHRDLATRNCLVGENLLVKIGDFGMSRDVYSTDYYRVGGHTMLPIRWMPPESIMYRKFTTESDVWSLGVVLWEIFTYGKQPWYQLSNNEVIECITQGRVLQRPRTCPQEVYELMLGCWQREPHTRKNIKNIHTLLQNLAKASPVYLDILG
T2 sequence (Q63604 32-821): as above
T2 sequence (Q63604 32-821): as above

C=CCN1C[C@H](C(=O)N(CCCN(C)C)C(=O)NCC)C[C@@H]2c3cccc4[nH]cc(c34)C[C@H]21 [cabergoline]
displacement of ^3H-LSD from TrkB (TrkB [1]): fail to displace ^3H-LSD | K (one phase exponential decay, best-fit) (TrkB [1]): 776405 | Plateau (one phase exponential decay, best-fit) (TrkB [1]): 113.3 | Span (one phase exponential decay, best-fit) (TrkB [1]): -10.49 | pKa [2]: 6.22

CN1C[C@H](C(=O)N[C@]2(C)O[C@@]3(O)[C@@H]4CCCN4C(=O)[C@H](Cc4ccccc4)N3C2=O)C[C@@H]2c3cccc4[nH]cc(c34)C[C@H]21 [dihydroergotamine]
displacement of ^3H-LSD from TrkB (TrkB [1]): fail to displace ^3H-LSD | K (one phase exponential decay, best-fit) (TrkB [1]): 5.40E+07 | Plateau (one phase exponential decay, best-fit) (TrkB [1]): 93.57 | Span (one phase exponential decay, best-fit) (TrkB [1]): 15.09 | pKa [2]: 6.75

O=C(c1ccc(F)cc1)C1CCN(CCn2c(=O)[nH]c3ccccc3c2=O)CC1 [ketanserin, ketanserin (+)-tartrate]
displacement of ^3H-LSD from TrkB (TrkB [1]): fail to displace LSD binding to TrkB | Fit status, specific binding with Hill slope (TrkB [1]; ext fig 1f): Ambiguous | Bmax (specific binding with Hill slope, best-fit) (TrkB [1]; [8]): 96.24 | h (Hill slope, best-fit) (TrkB [1]; [8]): ~ 0.3927 | displacement of biotinylated R,R-HNK from TrkB (TrkB [3]; biotinylated R,R-HNK 10 µM): not ketanserin, displace R,R-HNK binding to TrkB | K (one phase decay, best-fit) (TrkB [3]; ext fig 1g): 1491612413 | Plateau (one phase decay, best-fit) (TrkB [3]; ext fig 1g): 97.9 | Span (one phase decay, best-fit) (TrkB [3]; ext fig 1g): 2.855 | Tau (one phase decay, best-fit) (TrkB [3]; ext fig 1g): 6.70E-10 | Y0 (one phase decay, best-fit) (TrkB [3]; ext fig 1g): 100.8 | effect of pretreatment on LSD- and BDNF-induced TrkB dimerization (TrkB (WT) dimerization): fails to prevent the effects of LSD and BDNF on TrkB dimerization | effect on LSD effects on dendritic arbor complexity [4]: prevent the effects of LSD on dendritic arbor complexity

BDNF: Brain-derived neurotrophic factor
e6f Sholl profile, mean ([5]; WT + BDNF, distance from soma 10 µm): 6.929 | e6f Sholl profile, mean ([5]; WT + BDNF, distance from soma 15 µm): 9.643 | e6f Sholl profile, mean ([5]; WT + BDNF, distance from soma 20 µm): 7.929 | e6f Sholl profile, mean ([5]; WT + BDNF, distance from soma 25 µm): 7.929 | e6f Sholl profile, mean ([5]; WT + BDNF, distance from soma 30 µm): 6 | e6f Sholl profile, mean ([5]; WT + BDNF, distance from soma 35 µm): 4.5 | e6f Sholl profile, mean ([5]; WT + BDNF, distance from soma 40 µm): 3.857 | e6f Sholl profile, mean ([5]; WT + BDNF, distance from soma 45 µm): 3.571 | e6f Sholl profile, mean ([5]; WT + BDNF, distance from soma 50 µm): 2.714 | e6f Sholl profile, mean ([5]; WT + BDNF, distance from soma 55 µm): 2.429 | e6f Sholl profile, mean ([5]; WT + BDNF, distance from soma 60 µm): 2.786 | e6f Sholl profile, mean ([5]; WT + BDNF, distance from soma 65 µm): 2.643 | e6f Sholl profile, mean ([5]; WT + BDNF, distance from soma 70 µm): 3.143 | e6f Sholl profile, mean ([5]; WT + BDNF, distance from soma 75 µm): 2.929 | e6f Sholl profile, mean ([5]; WT + BDNF, distance from soma 80 µm): 2.714 | e6f Sholl profile, mean ([5]; WT + BDNF, distance from soma 85 µm): 2.786 | e6f Sholl profile, mean ([5]; WT + BDNF, distance from soma 90 µm): 2.286 | e6f Sholl profile, mean ([5]; WT + BDNF, distance from soma 95 µm): 1.857 | e6f Sholl profile, mean ([5]; WT + BDNF, distance from soma 100 µm): 1.857 | e6e group mean (dendritogenesis, Sholl analysis) ([5]; WT neuronal cultures, n=14): 78.5 | e6e Mean Diff. (Veh. minus BDNF) ([5]; WT:Veh. vs. WT:BDNF): -30.1 | e6f Sholl profile, mean ([5]; Y433F+/- + BDNF, distance from soma 10 µm): 8.0625 | e6f Sholl profile, mean ([5]; Y433F+/- + BDNF, distance from soma 15 µm): 9.4375 | e6f Sholl profile, mean ([5]; Y433F+/- + BDNF, distance from soma 20 µm): 10.25 | e6f Sholl profile, mean ([5]; Y433F+/- + BDNF, distance from soma 25 µm): 8.8125 | e6f Sholl profile, mean ([5]; Y433F+/- + BDNF, distance from soma 30 µm): 8.1875 | e6f Sholl profile, mean ([5]; Y433F+/- + BDNF, distance from soma 35 µm): 6.3125 | e6f Sholl profile, mean ([5]; Y433F+/- + BDNF, distance from soma 40 µm): 5.375 | e6f Sholl profile, mean ([5]; Y433F+/- + BDNF, distance from soma 45 µm): 5.1875 | e6f Sholl profile, mean ([5]; Y433F+/- + BDNF, distance from soma 50 µm): 3.9375 | e6f Sholl profile, mean ([5]; Y433F+/- + BDNF, distance from soma 55 µm): 3.6875 | e6f Sholl profile, mean ([5]; Y433F+/- + BDNF, distance from soma 60 µm): 3.25 | e6f Sholl profile, mean ([5]; Y433F+/- + BDNF, distance from soma 65 µm): 2.5625 | e6f Sholl profile, mean ([5]; Y433F+/- + BDNF, distance from soma 70 µm): 2.5 | e6f Sholl profile, mean ([5]; Y433F+/- + BDNF, distance from soma 75 µm): 1.875 | e6f Sholl profile, mean ([5]; Y433F+/- + BDNF, distance from soma 80 µm): 2 | e6f Sholl profile, mean ([5]; Y433F+/- + BDNF, distance from soma 85 µm): 1.625 | e6f Sholl profile, mean ([5]; Y433F+/- + BDNF, distance from soma 90 µm): 1.4375 | e6f Sholl profile, mean ([5]; Y433F+/- + BDNF, distance from soma 95 µm): 1.75 | e6f Sholl profile, mean ([5]; Y433F+/- + BDNF, distance from soma 100 µm): 1.3125 | e6e group mean (dendritogenesis, Sholl analysis) ([5]; Y433F+/- neuronal cultures, n=16): 87.56 | e6e Mean Diff. (Veh. minus BDNF) ([5]; Y433F+/-:Veh. vs. Y433F+/-:BDNF): -34.03 | dendritic arbor complexity ([5]; cultures from WT mice): increases dendritic arbor complexity | dendritic arbor complexity ([5]; cultures from Y433F^+/− mice): increased dendritic arbor complexity | total TrkB expression (TrkB [6]): No differences in total TrkB expression

B1: TrkB TMD (transmembrane residues of human TrkB, T423-G466) (domain or fragment, UniProt Q16620 423-466, looked up)
chain: TDKTGREHLSVYAVVVIASVVGFCLLVMLFLLKLARHSKFGMKG
notes: human TrkB, transmembrane residues T423-G466, UniProt Q16620; 15N- or 15N,13C-labelled; Cloned by NdeI and HindIII into pGEMEX1
binding result [7]: binds

From publication PMC10244169, “Psychedelics promote plasticity by directly binding to BDNF receptor TrkB” (Nature Neuroscience, 2023)
